{
  "source": "patent US20240415845A1",
  "about": "“Compositions of Iboga Alkaloids and Methods of Treatment” (priority 2022, published 2024)",
  "test_system": "special operations veterans with combat and/or blast exposure",
  "assay": "Clinician-Administered PTSD Scale for DSM-5 (CAPS-5)",
  "assay_type": "in vivo, human",
  "from_the_text": "The pre-specified primary outcome was change in the World Health Organization Disability Assessment Schedule 2.0 (WHODAS) (Gold L. H. et al., J. Am. Acad. Psychiatry Law 42, 9 (2014)) from baseline to post-treatment, with change from baseline to the one-month follow-up a secondary outcome. Additional pre-specified secondary outcomes included post-treatment changes on the Clinician Administered PTSD Scale (CAPS-5; Weathers, F. W. et al., Psychol. Assess., 30, 383-395 (2018)), Montgomery-Åsberg Depression Rating Scale (MADRS; Montgomery, S. A., Br. J. Psychiatry J. Ment. Sci., 134, 382-389 (1979)) and the Hamilton-Anxiety Rating Scale (HAM-A; Bruss, G. S., et al., Psychiatry Res., 53, 191-202 (1994)). […] An additional dose of magnesium was administered approximately 12 hours later. To assess the significance of post-treatment changes, linear mixed effects (LME) models were used for each outcome measure. False Discovery Rate (FDR; Benjamini, Y. et al., J. R. Stat. Soc. Ser. B Methodol., 57, 289-300 (1995)) was applied to correct for multiple comparisons.\nTo further assess changes in comorbid psychiatric symptoms identified by the models, mean percent reduction, response rate, and remission rate according to the CAPS-5, MADRS and HAM-A (Table 1) were calculated. Response on the CAPS-5, MADRS, and HAM-A was defined as a reduction of at least 10 points (Mitchell, J. M. et al., Nat. Med. 27, 1025-1033(2021)), 50% (Leucht, S. et al., J. Affect. Disord. 210, 287-293 (2017)), and 50% (McIntyre, A. et al., Depress. Anxiety 24, 487-494 (2007)), respectively; remission as loss of diagnosis and a total score below 12 (Mitchell, J. M. et al. supra), <8 (Leucht, S. et al. supra), and <8(McIntyre, A. et al., supra), respectively. One participant's baseline scores met criteria for remission in all three scales and so were excluded from the calculation of response and remission rates, leaving 29 participants in these specific analyses.\nWith subjects in the fasting state, an intravenous infusion of 1 gram of magnesium sulfate was administered 1-2 hours prior to treatment. […] Medical staff (MD, RN, or EMT) were onsite at a ratio of at least 1 staff per 2 patients throughout treatment for monitoring and management, but no specific coaching or psychological support was provided during treatment.\nClinician administered scales included CAPS-5 (Clinician-administered PTSD Scale for DSM-5), which is a gold standard assessment of PTSD symptom severity; MADRS (Montgomery-Asberg Depression Rating Scale), a measure for depressive symptom severity: and Hamilton-Anxiety Rating Scale (HAM-A) (Shear, M. K. et al., Depress. Anxiety 13, 166-178 (2001)) a measure for anxiety symptom severity: SCID-5 (Structured Clinical Interview for DSM-5) Overview for a historical and environmental context of symptom presentation: MINI DSM-5 (Mini International Neuropsychiatric Interview from DSM-5) for a structured psychodiagnostics assessment: BAT-L (Boston Assessment of TBI-Lifetime) for a lifetime history of TBI and blast exposure: and Ohio State University TBI Identification Method (Short Form) for a lifetime history of TBI. MADRS testing provides an indication of depressive symptoms, CAPS-5 provides an indication of PTSD and SIGH-A provides an indication of anxiety. Collectively these overlap to provide indication of mood, concentration, sleep and tension.\nFor the CAPS-5, the test version with a […] structured interview of PTSD symptoms over the past week was used, using a 0 (“Absent”) to 4 (“Extreme/Incapacitating”) scale, with possible total scores ranging from 0) to 80. The score range 23 to 34 is considered moderate PTSD while a higher score represents severe PTSD (Weathers, F. W. et al., Psychol. Assess. 30, 383-395 (2018)).",
  "key": {"[1]": {"details": "1-mo. post, only participants meeting relevant MINI diagnostic criteria"}, "[2]": {"details": "1-mo. post, only participants with mild TBI"}, "[3]": {"details": "1-wk. post, only participants meeting relevant MINI diagnostic criteria"}, "[4]": {"details": "1-wk. post, only participants with mild TBI"}},
  "note": "Values joined by “and” are separate entries in the source; they are usually repeats but may differ in a detail not shown here. Identical values can stand only once.",
  "data": [
    {"smiles": "CCC1CC2CC3c4[nH]c5ccc(OC)cc5c4CCN(C2)C13", "note": "(stereo not shown) [ibogaine, Ibogaine]", "values": [
      {"measurement": "CAPS-5 % Reduction vs Baseline", "setting": "[1]", "value": "86% ± 19%"},
      {"measurement": "CAPS-5 Remission Rate", "setting": "[1]", "value": 83, "unit": "%"},
      {"measurement": "CAPS-5 Response Rate", "setting": "[1]", "value": 100, "unit": "%"},
      {"measurement": "CAPS-5 score", "setting": "1-mo. post, only participants meeting relevant MINI diagnostic criteria at baseline (N 23), baseline 35.7 ± 11.0", "value": 6.0},
      {"measurement": "CAPS-5 % Reduction vs Baseline", "setting": "[2]", "value": "88% ± 17%"},
      {"measurement": "CAPS-5 Remission Rate", "setting": "[2]", "value": 85, "unit": "%"},
      {"measurement": "CAPS-5 Response Rate", "setting": "[2]", "value": 100, "unit": "%"},
      {"measurement": "CAPS-5 score", "setting": "1-mo. post, only participants with mild TBI (N 28), baseline 31.7 ± 13.0", "value": 4.8},
      {"measurement": "CAPS-5 score", "setting": "1-wk post, only participants meeting relevant MINI diagnostic criteria at baseline (N 23), baseline 35.7 ± 11.0", "value": 4.4},
      {"measurement": "CAPS-5 % Reduction vs Baseline", "setting": "[3]", "value": "87% ± 17%"},
      {"measurement": "CAPS-5 Remission Rate", "setting": "[3]", "value": 83, "unit": "%"},
      {"measurement": "CAPS-5 Response Rate", "setting": "[3]", "value": 96, "unit": "%"},
      {"measurement": "CAPS-5 % Reduction vs Baseline", "setting": "[4]", "value": "89% ± 14%"},
      {"measurement": "CAPS-5 Remission Rate", "setting": "[4]", "value": 89, "unit": "%"},
      {"measurement": "CAPS-5 Response Rate", "setting": "[4]", "value": 96, "unit": "%"},
      {"measurement": "CAPS-5 score", "setting": "1-wk. post, only participants with mild TBI (N 28), baseline 31.7 ± 13.0", "value": 3.6},
      {"measurement": "CAPS-5, effect size D", "setting": "baseline vs 1-mo. post, only participants meeting relevant MINI diagnostic criteria (N 23)", "value": 2.98},
      {"measurement": "CAPS-5, effect size D", "setting": "baseline vs 1-mo. post, only participants with mild TBI (N 28)", "value": 2.49},
      {"measurement": "CAPS-5, effect size D", "setting": "baseline vs 1-wk post, only participants with mild TBI (N 28)", "value": 2.28},
      {"measurement": "CAPS-5, effect size D", "setting": "baseline vs 1-wk. post, only participants meeting relevant MINI diagnostic criteria (N 23)", "value": 2.75},
      {"measurement": "CAPS-5, effect size D", "setting": "baseline vs one-month post, all participants", "value": 2.54},
      {"measurement": "CAPS-5, effect size D", "setting": "baseline vs one-week post, all participants", "value": 2.30},
      {"measurement": "subjects lower than mild PTSD symptom severity (CAPS-5)", "setting": "one month following treatment (FIG. 3B), mild = 12-22", "value": 80, "unit": "%"},
      {"measurement": "CAPS-5 Remission Rate", "setting": "one-month post, 29 participants, remission = loss of diagnosis and total score below 12", "value": 86, "unit": "%"},
      {"measurement": "CAPS-5 Response Rate", "setting": "one-month post, 29 participants, response = reduction of at least 10 points", "value": 100, "unit": "%"},
      {"measurement": "CAPS-5 score", "setting": "one-month post, all participants, baseline 31.7 ± 12.5, mean ± SD", "value": 4.8},
      {"measurement": "CAPS-5 % Reduction vs Baseline", "setting": "one-month post, all participants, mean ± SD", "value": "88% and 88% ± 17%"},
      {"measurement": "CAPS-5 Remission Rate", "setting": "one-week post, 29 participants, remission = loss of diagnosis and total score below 12", "value": 86, "unit": "%"},
      {"measurement": "CAPS-5 Response Rate", "setting": "one-week post, 29 participants, response = reduction of at least 10 points", "value": 97, "unit": "%"},
      {"measurement": "CAPS-5 score", "setting": "one-week post, all participants, baseline 31.7 ± 12.5, mean ± SD", "value": 3.9},
      {"measurement": "CAPS-5 % Reduction vs Baseline", "setting": "one-week post, all participants, mean ± SD", "value": "88% ± 15%"}
    ]}
  ]
}
